Legend:
[1] = biological target: T1, CXCR1 (Homo sapiens, UniProt P25024); experiment: Ki calculated from IC50 by the Cheng-Prusoff equation; format: binding; conditions: read-out: KiCXCR1 (nmol/L)
T1 sequence (P25024 1-350): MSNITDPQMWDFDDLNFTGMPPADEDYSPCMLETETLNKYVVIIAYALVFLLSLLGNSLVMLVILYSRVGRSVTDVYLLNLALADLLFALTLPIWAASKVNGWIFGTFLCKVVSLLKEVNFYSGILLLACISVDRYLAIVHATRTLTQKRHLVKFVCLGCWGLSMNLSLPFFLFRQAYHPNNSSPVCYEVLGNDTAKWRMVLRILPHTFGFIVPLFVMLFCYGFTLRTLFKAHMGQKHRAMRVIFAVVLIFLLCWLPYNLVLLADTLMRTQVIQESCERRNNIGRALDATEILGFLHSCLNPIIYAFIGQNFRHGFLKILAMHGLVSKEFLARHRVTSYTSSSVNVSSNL

[2] = biological target: T2, CXCR2 (Homo sapiens, UniProt P25025); experiment: as above; format: binding; conditions: read-out: KiCXCR2 (nmol/L)
T2 sequence (P25025 1-360): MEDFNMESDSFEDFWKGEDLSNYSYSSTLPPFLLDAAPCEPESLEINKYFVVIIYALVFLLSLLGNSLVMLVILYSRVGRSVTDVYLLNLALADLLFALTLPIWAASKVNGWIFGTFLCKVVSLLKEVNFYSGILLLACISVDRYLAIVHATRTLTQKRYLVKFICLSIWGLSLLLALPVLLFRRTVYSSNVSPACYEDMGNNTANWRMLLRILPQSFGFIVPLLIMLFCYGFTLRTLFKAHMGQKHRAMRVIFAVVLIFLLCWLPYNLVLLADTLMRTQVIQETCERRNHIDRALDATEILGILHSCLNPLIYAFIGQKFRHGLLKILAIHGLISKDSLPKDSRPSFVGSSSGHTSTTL

**Q.** Which Ki [1] does the source give for SCH-479833 here?
**A.** 7 nmol/L

**Q.** And the Ki [2]?
**A.** 0.17 nmol/L

From article PMC4232212 (Clinical cancer research : an official journal of the …, 2009)
